Experimental data taken from publication PMC3914206.

Tests used:
Format in all cases: binding
Parameters in all cases: KINOMEscan: ABL1(F317L)-phosphorylated / KINOMEscan: ABL1(H396P)-nonphosphorylated / KINOMEscan: ABL1(H396P)-phosphorylated / KINOMEscan: ABL1(M351T)-phosphorylated / KINOMEscan: ABL1(T315I)-phosphorylated / KINOMEscan: ABL1-nonphosphorylated / KINOMEscan: ABL1-phosphorylated / KINOMEscan: ACVR2A / KINOMEscan: ACVR2B / KINOMEscan: ADCK3 / KINOMEscan: ADCK4 / KINOMEscan: AKT1 / KINOMEscan: AKT3 / KINOMEscan: ALK / KINOMEscan: ARK5 / KINOMEscan: AURKA / KINOMEscan: AURKC / KINOMEscan: BIKE / KINOMEscan: BMPR1A / KINOMEscan: BMPR1B / KINOMEscan: BMX / KINOMEscan: BRK / KINOMEscan: BRSK1 / KINOMEscan: BRSK2 / KINOMEscan: CAMK1 / KINOMEscan: CAMK1D / KINOMEscan: CAMK1G / KINOMEscan: CAMK2A / KINOMEscan: CAMK2B / KINOMEscan: AAK1 / KINOMEscan: CAMK2D / KINOMEscan: CAMK2G / KINOMEscan: ABL1(F317I)-nonphosphorylated / KINOMEscan: ABL1(F317I)-phosphorylated / KINOMEscan: ABL1(F317L)-nonphosphorylated: unit: % Ctrl
Conditions in all cases: Compound Concentration 10 µM
[1] = molecular target: T1, panel of 442 kinases (Homo sapiens, UniProt P08581, M1250T)
T1 construct: purchased KINOMEscan
T1 sequence (P08581 25-1390 M1250T): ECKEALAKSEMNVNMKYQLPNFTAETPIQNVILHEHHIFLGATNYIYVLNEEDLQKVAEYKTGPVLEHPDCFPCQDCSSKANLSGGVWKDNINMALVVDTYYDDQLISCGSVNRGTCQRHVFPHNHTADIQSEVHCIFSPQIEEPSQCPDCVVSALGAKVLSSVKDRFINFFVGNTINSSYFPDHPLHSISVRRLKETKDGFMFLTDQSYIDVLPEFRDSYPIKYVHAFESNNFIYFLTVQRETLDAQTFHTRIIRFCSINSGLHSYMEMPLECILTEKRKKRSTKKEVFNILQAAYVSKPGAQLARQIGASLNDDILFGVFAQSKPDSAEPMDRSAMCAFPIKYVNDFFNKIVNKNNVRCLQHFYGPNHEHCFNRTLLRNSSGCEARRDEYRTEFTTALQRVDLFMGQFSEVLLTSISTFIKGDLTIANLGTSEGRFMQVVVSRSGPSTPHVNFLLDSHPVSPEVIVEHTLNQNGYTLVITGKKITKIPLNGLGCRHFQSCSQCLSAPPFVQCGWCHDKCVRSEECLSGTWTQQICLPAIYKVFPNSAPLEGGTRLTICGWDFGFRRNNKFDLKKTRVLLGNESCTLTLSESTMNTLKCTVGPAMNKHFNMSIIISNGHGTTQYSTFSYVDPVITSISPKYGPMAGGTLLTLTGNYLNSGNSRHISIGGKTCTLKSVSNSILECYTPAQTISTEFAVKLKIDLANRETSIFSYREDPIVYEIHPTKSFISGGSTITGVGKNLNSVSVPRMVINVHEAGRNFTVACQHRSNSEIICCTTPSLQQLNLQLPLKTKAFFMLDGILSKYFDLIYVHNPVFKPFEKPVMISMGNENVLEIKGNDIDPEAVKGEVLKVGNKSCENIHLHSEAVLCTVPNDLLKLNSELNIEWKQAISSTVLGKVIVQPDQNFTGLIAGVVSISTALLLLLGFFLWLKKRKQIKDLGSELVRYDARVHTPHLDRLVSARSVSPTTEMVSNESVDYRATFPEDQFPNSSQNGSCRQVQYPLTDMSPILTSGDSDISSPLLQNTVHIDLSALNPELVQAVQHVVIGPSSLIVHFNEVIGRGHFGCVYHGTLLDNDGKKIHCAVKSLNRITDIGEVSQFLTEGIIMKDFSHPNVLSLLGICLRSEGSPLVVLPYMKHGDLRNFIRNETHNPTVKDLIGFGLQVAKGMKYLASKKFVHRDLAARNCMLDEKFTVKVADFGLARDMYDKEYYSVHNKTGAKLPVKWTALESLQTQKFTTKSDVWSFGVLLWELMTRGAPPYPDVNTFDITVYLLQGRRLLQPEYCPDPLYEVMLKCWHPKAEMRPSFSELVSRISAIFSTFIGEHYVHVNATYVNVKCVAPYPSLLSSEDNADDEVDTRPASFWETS
Excerpt: (§1) We assessed the selectivity of members of this scaffold using the KINOMEscan methodology across a near comprehensive panel of 442 kinases [[18,27]].

[2] = molecular target: T2, panel of 442 kinases (Homo sapiens, UniProt Q8TDC3)
T2 construct: purchased KINOMEscan
T2 sequence (Q8TDC3 1-778): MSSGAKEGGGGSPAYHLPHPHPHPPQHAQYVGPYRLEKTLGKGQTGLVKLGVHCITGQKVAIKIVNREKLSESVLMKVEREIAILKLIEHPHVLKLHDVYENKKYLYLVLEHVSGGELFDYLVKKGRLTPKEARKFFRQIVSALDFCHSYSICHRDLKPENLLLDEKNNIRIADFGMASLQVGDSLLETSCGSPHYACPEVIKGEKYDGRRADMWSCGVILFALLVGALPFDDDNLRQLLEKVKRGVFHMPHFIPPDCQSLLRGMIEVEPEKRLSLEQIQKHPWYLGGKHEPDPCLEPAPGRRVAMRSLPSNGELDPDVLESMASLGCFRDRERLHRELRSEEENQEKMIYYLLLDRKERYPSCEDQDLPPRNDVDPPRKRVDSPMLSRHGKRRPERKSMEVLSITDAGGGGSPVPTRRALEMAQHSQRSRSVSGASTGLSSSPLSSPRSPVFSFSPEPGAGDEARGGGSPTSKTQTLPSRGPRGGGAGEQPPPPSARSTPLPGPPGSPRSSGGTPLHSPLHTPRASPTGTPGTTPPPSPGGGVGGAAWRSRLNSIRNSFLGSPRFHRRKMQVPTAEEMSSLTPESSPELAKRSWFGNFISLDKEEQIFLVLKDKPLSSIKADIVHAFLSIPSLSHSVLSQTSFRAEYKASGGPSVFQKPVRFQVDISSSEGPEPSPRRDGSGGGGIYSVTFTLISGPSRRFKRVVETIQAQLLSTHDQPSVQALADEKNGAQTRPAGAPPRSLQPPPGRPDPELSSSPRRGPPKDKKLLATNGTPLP
Excerpt: as §1

[3] = molecular target: T3, panel of 442 kinases (Homo sapiens, UniProt P27037)
T3 construct: purchased KINOMEscan
T3 sequence (P27037 20-513): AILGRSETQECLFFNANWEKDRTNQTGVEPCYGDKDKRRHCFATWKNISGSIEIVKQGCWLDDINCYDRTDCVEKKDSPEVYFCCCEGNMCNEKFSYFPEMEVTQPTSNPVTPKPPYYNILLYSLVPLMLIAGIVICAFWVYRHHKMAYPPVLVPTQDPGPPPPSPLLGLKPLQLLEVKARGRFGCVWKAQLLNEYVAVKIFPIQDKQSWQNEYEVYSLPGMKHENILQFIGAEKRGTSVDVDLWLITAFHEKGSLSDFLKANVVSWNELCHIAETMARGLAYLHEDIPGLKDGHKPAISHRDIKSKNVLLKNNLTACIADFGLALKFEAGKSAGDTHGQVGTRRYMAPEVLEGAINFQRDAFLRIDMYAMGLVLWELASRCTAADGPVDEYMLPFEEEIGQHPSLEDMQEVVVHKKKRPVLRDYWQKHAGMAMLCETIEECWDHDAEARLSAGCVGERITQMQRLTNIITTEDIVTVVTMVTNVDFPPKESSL
Excerpt: as §1

Row | Compound | KINOMEscan: MET(M1250T) [1] | KINOMEscan: BRSK1 [2] | KINOMEscan: ACVR2A [3]
1 | COc1cc(C(=O)N2CCC(N3CCN(C)CC3)CC2)ccc1Nc1ncc2c(n1)N(C1CCCC1)c1ccccc1C(=O)N2C [Compound 25, 11-cyclopentyl-2-((2-methoxy-4-(4-(4-methylpiperazin-1-yl)piperidine-1-carbonyl)phenyl)amino)-5-methyl-5H-benzo[e]pyrimido[5,4-b][1,4]diazepin-6(11H)-one] | 95 | 84 | 93
2 | CCOc1cc(C(=O)N2CCC(N3CCN(C)CC3)CC2)ccc1Nc1ncc2c(n1)N(C1CCCC1)c1ccccc1C(=O)N2C [Compound 26] | 100 | 100 | 95
3 | COc1cc(C(=O)N2CCC(N3CCN(C)CC3)CC2)ccc1Nc1ncc2c(n1)N1CCc3cccc(c31)C(=O)N2C [Compound 24] | 88 | 82 | 71
4 | COc1cc(C(=O)N2CCC(N3CCN(C)CC3)CC2)ccc1Nc1ncc2c(n1)N(C)c1ccccc1C(=O)N2C [15 (LRRK2-IN-1)] | 96 | 81 | 100
